Common to all, as to type: cell-based
The target in assay [1] is T1, OATP1B3 (Homo sapiens, UniProt Q9NPD5).
T1 construct: expressed in transfected cells; host or cells: A431 cells
T1 sequence (Q9NPD5 1-702): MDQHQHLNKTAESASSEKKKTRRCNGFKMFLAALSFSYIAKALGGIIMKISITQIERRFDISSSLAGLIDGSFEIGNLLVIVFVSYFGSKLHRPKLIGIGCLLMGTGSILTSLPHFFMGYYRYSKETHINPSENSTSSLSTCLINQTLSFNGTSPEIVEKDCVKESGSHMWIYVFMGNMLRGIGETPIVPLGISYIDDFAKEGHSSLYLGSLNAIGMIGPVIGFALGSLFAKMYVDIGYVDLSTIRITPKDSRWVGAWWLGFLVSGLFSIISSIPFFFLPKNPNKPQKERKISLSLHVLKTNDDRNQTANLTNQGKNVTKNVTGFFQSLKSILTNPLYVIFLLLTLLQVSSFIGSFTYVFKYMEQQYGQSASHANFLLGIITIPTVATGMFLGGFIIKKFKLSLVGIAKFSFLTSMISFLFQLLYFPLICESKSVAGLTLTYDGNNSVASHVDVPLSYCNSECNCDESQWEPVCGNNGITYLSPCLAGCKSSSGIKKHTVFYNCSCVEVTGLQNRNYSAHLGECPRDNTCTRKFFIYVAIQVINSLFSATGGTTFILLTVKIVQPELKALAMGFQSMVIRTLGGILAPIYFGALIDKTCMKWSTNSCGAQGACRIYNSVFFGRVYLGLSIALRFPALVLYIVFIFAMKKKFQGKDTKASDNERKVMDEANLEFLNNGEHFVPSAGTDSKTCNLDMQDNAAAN
Briefly: Pyranine transport inhibition in A431 cells overexpressing OATP1B3. Particulars: category by concentration needed for 50% inhibition, pyranine 20 μM, 30 min, pH 5.5. As to the method:
(§1) A431 cells overexpressing OATP1B1, OATP1B3, or OATP2B1 or their mock transfected controls were generated previously[30] and maintained in Dulbecco’s modified Eagle medium (DMEM, Gibco, Thermofisher Scientific, Waltham, MA, US) supplemented with 10% fetal bovine serum, 2 mM L-glutamine, 100 units/mL penicillin, and 100 μg/mL streptomycin. Expression and function of OATPs in the cell lines were checked regularly.
(§2) Interaction with OATP1B1, OATP1B3, or OATP2B1 was tested in an indirect transport assay using pyranine (8-hydroxypyrene-1,3,6-trisulfonic acid trisodium salt, H1529, Sigma, Merck, Budapest, Hungary) as the test substrate[31],[32] A431 cells overexpressing OATP1B1, OATP1B3, or OATP2B1 or their mock transfected controls were seeded on 96-well plates in a density of 8 × 10^4 cells per well in 200 μL of cell culture medium 1 day prior to the transport measurements. […] The transport reaction was started by the addition of 50 μL of uptake buffer containing pyranine in a final concentration of 10 μM (OATP1B1) or 20 μM (OATP1B3 and OATP2B1), and the cells were further incubated at 37 °C for 15 min (OATP1B1 and OATP2B1) or 30 min (OATP1B3). The reaction was stopped by removing the supernatant. After repeated washing with ice-cold PBS, fluorescence was determined in an Enspire plate reader (PerkinElmer, Waltham, MA) with excitation/emission wavelengths of 460/510 nm. OATP-dependent transport was calculated by extracting fluorescence measured in mock transfected cells and normalized to the fluorescence signal obtained in the absence of the tested compounds (100%). Experiments were repeated in at least three biological replicates.

Assay [2] addresses T2, OATP2B1 (Homo sapiens, UniProt O94956).
T2 construct: expressed in transfected cells; host or cells: A431 cells
T2 sequence (O94956 1-709): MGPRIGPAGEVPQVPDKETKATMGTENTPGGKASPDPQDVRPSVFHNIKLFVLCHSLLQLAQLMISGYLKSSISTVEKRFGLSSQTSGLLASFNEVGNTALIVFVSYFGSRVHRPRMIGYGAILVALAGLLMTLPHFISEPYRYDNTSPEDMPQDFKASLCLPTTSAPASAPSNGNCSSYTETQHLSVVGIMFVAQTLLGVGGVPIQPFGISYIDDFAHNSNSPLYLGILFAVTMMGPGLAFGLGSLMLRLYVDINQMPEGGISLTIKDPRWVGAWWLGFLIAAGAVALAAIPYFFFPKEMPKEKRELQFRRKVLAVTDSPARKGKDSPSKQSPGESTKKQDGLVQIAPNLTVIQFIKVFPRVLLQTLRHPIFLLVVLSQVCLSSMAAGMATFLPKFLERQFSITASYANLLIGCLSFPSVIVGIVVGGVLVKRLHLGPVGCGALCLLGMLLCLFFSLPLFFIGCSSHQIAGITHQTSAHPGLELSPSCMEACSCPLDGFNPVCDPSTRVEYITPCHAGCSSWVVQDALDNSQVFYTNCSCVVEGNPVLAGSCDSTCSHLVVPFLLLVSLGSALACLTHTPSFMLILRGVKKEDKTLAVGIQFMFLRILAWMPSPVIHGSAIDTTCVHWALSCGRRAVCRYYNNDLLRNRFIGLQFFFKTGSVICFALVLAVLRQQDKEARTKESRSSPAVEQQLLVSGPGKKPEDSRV
In words: Pyranine transport inhibition in A431 cells overexpressing OATP2B1. The conditions noted are these: category by concentration needed for 50% inhibition, pyranine 20 μM, 15 min, pH 5.5. On the procedure:
as §1, §2

Assay [3] deals with T3, OATP1B1 (Homo sapiens, UniProt Q9Y6L6).
T3 construct: expressed in transfected cells; host or cells: A431 cells
T3 sequence (Q9Y6L6 1-691): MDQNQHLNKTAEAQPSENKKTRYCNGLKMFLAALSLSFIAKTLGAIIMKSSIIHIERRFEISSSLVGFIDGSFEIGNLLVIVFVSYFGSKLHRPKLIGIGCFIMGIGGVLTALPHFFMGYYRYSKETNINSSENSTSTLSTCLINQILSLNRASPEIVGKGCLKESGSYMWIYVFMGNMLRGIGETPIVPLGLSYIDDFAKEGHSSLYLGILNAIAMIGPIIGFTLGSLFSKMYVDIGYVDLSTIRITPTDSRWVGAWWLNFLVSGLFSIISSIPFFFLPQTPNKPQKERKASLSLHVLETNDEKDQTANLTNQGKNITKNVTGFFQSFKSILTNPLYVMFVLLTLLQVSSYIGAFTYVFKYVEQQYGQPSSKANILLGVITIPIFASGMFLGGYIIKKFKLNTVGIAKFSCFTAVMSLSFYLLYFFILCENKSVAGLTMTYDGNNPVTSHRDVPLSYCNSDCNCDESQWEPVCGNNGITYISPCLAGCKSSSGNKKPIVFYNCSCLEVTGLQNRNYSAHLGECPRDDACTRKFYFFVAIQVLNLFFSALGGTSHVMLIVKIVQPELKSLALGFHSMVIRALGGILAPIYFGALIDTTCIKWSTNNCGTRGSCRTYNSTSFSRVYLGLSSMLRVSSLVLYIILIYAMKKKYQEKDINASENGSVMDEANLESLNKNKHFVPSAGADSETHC
Briefly: Pyranine transport inhibition in A431 cells overexpressing OATP1B1. The conditions noted are these: initial three-point screen (1, 10, 100 μM), category by concentration needed for 50% inhibition, pyranine 10 μM, 15 min, pH 5.5; for IC50: read-out: IC50 (μM) OATP1B1. On the procedure:
as §1, §2

Where [4] appears, read: initial three-point screen (1, 10, 100 μM), read-out: IC50 (μM) OATP1B3.
Where [5] appears, read: initial three-point screen (1, 10, 100 μM), read-out: IC50 (μM) OATP2B1.
[6] abbreviates: initial three-point screen (1, 10, 100 μM).

Molecules are shown by their SMILES. Like-named read-outs stand apart in the source and are kept apart here. A value given as a limit tells only on which side of the number the result lay.

What is called IC50 is the point on the concentration scale where inhibition reaches its midpoint.

With `N#Cc1c(NC(=O)COC(=O)CN2C(=O)NC3(CCc4ccccc43)C2=O)sc2c1CCCCC2` (stereo not drawn) [A2, O=C(COC(=O)CN1C(=O)NC2(CCc3ccccc23)C1=O)Nc4sc5CCCCCc5c4C#N], the IC50 in assay [1] (setting [4]), in assay [2] (setting [5]) and in assay [3] was 1 to 10 µM throughout.

Turning to `Cc1occc1-c1nnc(SCC(=O)c2ccc3c(c2)NC(=O)CO3)n1Cc1ccccc1` [A3, Cc1occc1c2nnc(SCC(=O)c3ccc4OCC(=O)Nc4c3)n2Cc5ccccc5], the half-maximal inhibitory concentration (IC50) in assay [1] (setting [4]) is greater than 10 µM; in assay [2] (setting [5]), 1 to 10 µM; in assay [3], 1 to 10 µM.

In the case of `Fc1ccccc1-c1cc(-c2ccccc2)c2c3c(sc2n1)CCCC3` [A4, Fc1ccccc1c2cc(c3ccccc3)c4c5CCCCc5sc4n2], the “IC50 (μM) OATP1B3” value in assay [1] (setting [6]) is recorded as “no effect”. The IC50 in assay [2] (setting [5]) was greater than 10 µM. For the same molecule, the “IC50 (μM) OATP1B1” value in assay [3] was “no effect”.

As to `Fc1ccc(C2CC(c3cccs3)=NN2c2nc(-c3ccccc3)c3cc(Cl)ccc3n2)cc1` (stereo not drawn) [A5, Fc1ccc(cc1)C2CC(=NN2c3nc(c4ccccc4)c5cc(Cl)ccc5n3)c6cccs6], the “IC50 (μM) OATP1B3” value in assay [1] (setting [6]) is “no effect”. Besides, the IC50 in assay [2] (setting [5]) is greater than 10 µM. Also, in assay [3], the “IC50 (μM) OATP1B1” value is “no effect”.

Take `O=C(CN1C(=O)NC(Cc2c[nH]c3ccccc23)C1=O)Nc1ccc(OCc2ccccc2)cc1` (stereo not drawn) [A6, O=C(CN1C(=O)NC(Cc2c[nH]c3ccccc23)C1=O)Nc4ccc(OCc5ccccc5)cc4]: the IC50 in assay [1] (setting [4]) and in assay [2] (setting [5]) was greater than 10 µM throughout. In addition, the “IC50 (μM) OATP1B1” value in assay [3] was “no effect”.

As to `CC(C)(C)c1ncc(NC(=O)c2ccccc2-c2ncc(-c3ccccc3)o2)cn1` [A7, CC(C)(C)c1ncc(NC(=O)c2ccccc2c3oc(cn3)c4ccccc4)cn1], the “IC50 (μM) OATP1B3” value in assay [1] (setting [6]) is listed as “Activated”. Further, the IC50 in assay [2] (setting [5]) is 1 to 10 µM. The “IC50 (μM) OATP1B1” value in assay [3] was “no effect”.

Consider `Cc1ccc(NC(=O)C(Sc2nnc3n2CCCCC3)c2ccccc2)cc1Cl` (stereo not drawn) [B2, Cc1ccc(NC(=O)C(Sc2nnc3CCCCCn23)c4ccccc4)cc1Cl], for which the IC50 is greater than 10 µM in assay [1] (IC50 (μM) OATP1B3, initial three-point screen (1, 10, 100 μM)) and greater than 10 µM in assay [2] (IC50 (μM) OATP2B1, initial three-point screen (1, 10, 100 μM)). Also, in assay [3], the “IC50 (μM) OATP1B1” value is listed as “no effect”.

`O=C(CC12CC3CC(CC(C3)C1)C2)NCC(=O)N1CCN(S(=O)(=O)c2ccccc2F)CC1` [B3, Fc1ccccc1S(=O)(=O)N2CCN(CC2)C(=O)CNC(=O)CC34CC5CC(CC(C5)C3)C4]: the figures for the IC50 in assay [1] (setting [4]), in assay [2] (setting [5]) and in assay [3] were greater than 10 µM, 1 to 10 µM and greater than 10 µM, respectively.

Turning to `Cc1cc(C)n2nc(SCc3ccccc3C(=O)NCCc3ccc4c(c3)OCCO4)nc2n1` [C2, Cc1cc(C)n2nc(SCc3ccccc3C(=O)NCCc4ccc5OCCOc5c4)nc2n1], the IC50 in assay [2] (setting [5]) and in assay [3] was 1 to 10 µM each time.

In the case of `CC(OC(=O)c1cc(Cl)c2c(c1)OCCCO2)C(=O)c1ccc2c(c1)NC(=O)CO2` (stereo not drawn) [D4, CC(OC(=O)c1cc(Cl)c2OCCCOc2c1)C(=O)c3ccc4OCC(=O)Nc4c3], the IC50 in assay [2] (setting [5]) was in the range of 1 to 10 µM.

As for `O=C(OCC(=O)N(C1CCCCC1)C1CCCCC1)c1nn(-c2ccccc2)c(=O)c2ccccc12` [D5, O=C(COC(=O)C1=NN(C(=O)c2ccccc12)c3ccccc3)N(C4CCCCC4)C5CCCCC5], the IC50 in assay [1] (setting [4]) and in assay [3] was greater than 10 µM each time.

Take `O=C(CN1C(=O)NC2(CCCc3ccccc32)C1=O)Nc1nnc(C23CC4CC(CC(C4)C2)C3)s1` (stereo not drawn) [D6, O=C(CN1C(=O)NC2(CCCc3ccccc23)C1=O)Nc4nnc(s4)C56CC7CC(CC(C7)C5)C6]: the IC50 in assay [2] (setting [5]) was 1 to 10 µM; in assay [3] it was greater than 10 µM.

Regarding `CC1CCN(c2nnc(SCC(=O)NCC3COc4ccccc4O3)n2C2CC2)CC1` (stereo not drawn) [E4, CC1CCN(CC1)c2nnc(SCC(=O)NCC3COc4ccccc4O3)n2C5CC5], the IC50 in assay [1] (setting [4]) was greater than 10 µM; in assay [2] (setting [5]), 1 to 10 µM.

With `O=C(Nc1ccccc1)c1ccccc1OCC(=O)N1CCN(C(=O)c2ccco2)CC1` [F2, O=C(COc1ccccc1C(=O)Nc2ccccc2)N3CCN(CC3)C(=O)c4occc4], the IC50 is greater than 10 µM in assay [1] (setting [4]) and 1 to 10 µM in assay [2] (setting [5]).

Take `O=C(CCc1ncc(-c2c(F)cccc2F)o1)N1CCN(S(=O)(=O)c2ccccc2F)CC1` [G3, Fc1cccc(F)c1c2oc(CCC(=O)N3CCN(CC3)S(=O)(=O)c4ccccc4F)nc2]: the IC50 in assay [1] (setting [4]) was greater than 10 µM; in assay [2] (setting [5]), 1 to 10 µM.

Consider `CC(OC(=O)C1CCN(S(=O)(=O)c2ccc3c(c2)OCCO3)CC1)C(=O)Nc1cccc(C#N)c1` (stereo not drawn) [H3, CC(OC(=O)C1CCN(CC1)S(=O)(=O)c2ccc3OCCOc3c2)C(=O)Nc4cccc(c4)C#N], for which the IC50 in assay [2] (setting [5]) and in assay [3] was 1 to 10 µM in each case.

For the origin of these results see publication PMC9795544, “Identifying Novel Inhibitors for Hepatic Organic Anion Transporting Polypeptides by Machine Learning-Based Virtual Screening” (Journal of Chemical Information and Modeling, 2022).
